Assay results from US20120029031A1, “METADOXINE FOR USE AS INHIBITOR OF HEPATIC FIBROSIS” (LABORATORI BALDACCI SPA, priority 2009, published 2012).

Tested on: immortalized human fibroblasts
Assay: Proliferation of immortalized human fibroblasts (MTT, Mosmann method)
Assay type: cell-based
Conditions: MTT O.D. as percent of control; tested range 10^−11M to 10^−3M; measured up to 120 h, treatments repeated every 24 h
Method: The methods used allow evaluating the effect of substances provided with potential antifibrotic activity on the proliferation of fibroblasts.
A line of immortalized human fibroblasts was used, maintained in a culture in a suitable medium.
In order to carry out the proliferation experiments, the fibroblasts were detached from the flask by means of trypsinization, counted and distributed on 96-well flat-bottom plates at the concentration of 2000 cells/100 μl medium.
Scalar concentrations of metadoxine were added (range of concentration from 10^−11M to 10^−3M).
The plates were maintained in CO2 incubator at 37° C. The proliferation of the cells was measured at 24 h intervals up to 120 h by using the Mosmann method (10), based on the spectrophotometer determination of the conversion of MTT [3-(4,5 dimethylthiazole-2-yl)-2-5 diphenyltetrazolium bromide] to its blue reduction product, formazan, by mitochondrial enzymes of the metabolically active cells.
The optical densities (O.D.) were determined by means of the Titertek Multiscan (Flow) spectrophotometer with 540 nm filter.
The O.D.s of the samples are expressed as percentages of the samples with respect to the control group.

With `Cc1ncc(CO)c(CO)c1O.O=C1CC[C@@H](C(=O)O)N1` [Metadoxine, Pyridoxol L-2-pyrrolidone-5-carboxylate] as the molecule, how does the “concentration at which metadoxine inhibits the fibrogenic activity / growth of fibroblasts” value read?
The value was 10^−5 M.
